Experimental data: publication PMC6377810 (ACS chemical biology, 2018)
Read-outs that look alike come from different tables or passages of the source.

Key:
Hsc70 [1] = target: T1, Hsc70 (Homo sapiens, UniProt P11142); experiment: malachite green ATP turnover assay; assay type: biochemical
Hsc70 [2] = target: T1, Hsc70; experiment: direct binding by quench of compound fluorescence
Hsc70 [3] = target: T1, Hsc70; experiment: direct binding by quench of compound fluorescence; remark: listed apart in the source
Hsp72 (Homo sapiens) [4] = target: Hsp72 (Homo sapiens) (UniProt P0DMV8); conditions: cited from earlier work
Hsp72 (Homo sapiens) [5] = target: Hsp72 (Homo sapiens) (UniProt P0DMV8); conditions: cited from earlier work; remark: listed apart in the source

T1 sequence (P11142 whole entry): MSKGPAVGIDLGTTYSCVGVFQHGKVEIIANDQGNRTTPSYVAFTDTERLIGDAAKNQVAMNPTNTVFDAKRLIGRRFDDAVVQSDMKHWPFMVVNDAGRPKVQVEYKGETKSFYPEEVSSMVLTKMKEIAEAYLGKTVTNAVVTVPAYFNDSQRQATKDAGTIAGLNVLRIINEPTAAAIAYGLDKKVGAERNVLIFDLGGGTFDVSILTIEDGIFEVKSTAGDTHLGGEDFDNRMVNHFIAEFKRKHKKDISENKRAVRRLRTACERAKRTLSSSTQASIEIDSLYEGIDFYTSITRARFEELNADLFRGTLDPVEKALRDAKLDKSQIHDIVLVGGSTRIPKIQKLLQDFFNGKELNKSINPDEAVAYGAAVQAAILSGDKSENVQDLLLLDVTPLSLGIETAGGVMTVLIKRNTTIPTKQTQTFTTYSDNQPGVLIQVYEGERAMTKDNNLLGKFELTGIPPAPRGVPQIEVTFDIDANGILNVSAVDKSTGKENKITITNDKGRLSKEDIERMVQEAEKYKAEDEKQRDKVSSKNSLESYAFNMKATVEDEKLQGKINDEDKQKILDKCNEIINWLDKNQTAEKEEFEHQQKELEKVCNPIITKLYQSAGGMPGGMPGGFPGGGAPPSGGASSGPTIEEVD
Sequence of Hsp72 (Homo sapiens) (P0DMV8 2-641): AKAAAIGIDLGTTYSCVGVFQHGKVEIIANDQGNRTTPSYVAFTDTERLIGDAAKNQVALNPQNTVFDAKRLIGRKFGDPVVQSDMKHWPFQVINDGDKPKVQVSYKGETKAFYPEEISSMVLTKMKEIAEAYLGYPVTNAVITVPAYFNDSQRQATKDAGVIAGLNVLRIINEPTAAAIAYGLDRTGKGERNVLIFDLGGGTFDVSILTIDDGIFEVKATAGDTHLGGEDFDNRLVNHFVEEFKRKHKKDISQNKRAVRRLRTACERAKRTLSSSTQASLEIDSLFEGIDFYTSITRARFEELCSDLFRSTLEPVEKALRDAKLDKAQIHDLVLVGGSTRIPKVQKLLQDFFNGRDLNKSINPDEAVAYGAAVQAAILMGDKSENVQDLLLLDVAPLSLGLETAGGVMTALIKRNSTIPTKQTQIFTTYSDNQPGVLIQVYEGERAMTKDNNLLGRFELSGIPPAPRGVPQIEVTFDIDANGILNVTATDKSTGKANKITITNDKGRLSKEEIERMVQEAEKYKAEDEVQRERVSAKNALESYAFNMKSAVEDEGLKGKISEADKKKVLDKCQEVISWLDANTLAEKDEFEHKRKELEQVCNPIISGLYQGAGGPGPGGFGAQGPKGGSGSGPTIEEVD
Sequence of BAG1 (Q99933 whole entry): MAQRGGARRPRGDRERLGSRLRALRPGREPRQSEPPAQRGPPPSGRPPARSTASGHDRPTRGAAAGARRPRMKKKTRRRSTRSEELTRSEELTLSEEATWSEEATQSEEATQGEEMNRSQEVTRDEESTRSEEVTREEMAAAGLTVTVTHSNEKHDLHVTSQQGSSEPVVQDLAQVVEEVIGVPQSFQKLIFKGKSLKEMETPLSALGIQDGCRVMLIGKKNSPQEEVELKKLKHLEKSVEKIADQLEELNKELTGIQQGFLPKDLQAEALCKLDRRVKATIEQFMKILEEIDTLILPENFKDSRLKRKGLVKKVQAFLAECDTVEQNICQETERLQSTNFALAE

Compound: Nc1ncnc2c1ncn2[C@@H]1O[C@H](COP(=O)(O)OP(=O)(O)OP(=O)(O)O)[C@@H](O)[C@H]1O [ATP]
- malachite green ATP turnover assay; partial proteolysis in the ATP-bound state (Hsc70 [1]): ~ 2 pmol/µM Hsc70/min

Compound: CCn1c(=O)/c(=C2\Sc3cc(Cl)ccc3N2C)s/c1=C\c1scc[n+]1Cc1cccc(C(F)(F)F)c1 [JG-115, 2-((Z)-((E)-5-(6-chloro-3-methylbenzo[d]thiazol-2(3H)-ylidene)-3-ethyl-4-oxothiazolidin-2-ylidene)methyl)-3-(3-(trifluoromethyl)benzyl)thiazol-3-ium chloride]
- Kd (Hsc70 [2]): ~3100 nM

Compound: CCn1c(=O)/c(=C2\Sc3cc(Cl)ccc3N2C)s/c1=C\c1scc[n+]1Cc1ccc(C(F)(F)F)cc1 [JG-118, 2-((Z)-((E)-5-(6-chloro-3-methylbenzo[d]thiazol-2(3H)-ylidene)-3-ethyl-4-oxothiazolidin-2-ylidene)methyl)-3-(4-(trifluoromethyl)benzyl)thiazol-3-ium chloride]
- Kd (Hsc70 [2]): ~2600 nM

Compound: CCn1c(=O)/c(=C2\Sc3cc(Cl)ccc3N2C)s/c1=C\c1scc[n+]1Cc1ccccc1OC(F)F [JG-237, 2-((Z)-((E)-5-(6-chloro-3-methylbenzo[d]thiazol-2(3H)-ylidene)-3-ethyl-4-oxothiazolidin-2-ylidene)methyl)-3-(2-(difluoromethoxy)benzyl)thiazol-3-ium chloride]
- Kd (Hsc70 [3]): 1500 ± 300 nM

Compound: BAG1 (from UniProt Q99933)
- Kd (Hsp72 (Homo sapiens) [4]): 36 nM
- Kd (Hsp72 (Homo sapiens) [5]): 8 nM
